Columns and labels:
Type in all cases: functional
[1] = system: Agrilus planipennis; experiment: Insecticidal activity against Agrilus planipennis isolated from 21 days after 25 uCi compound treated by trunk injected ash tree leaves assessed as mortality measured after 3 days of feeding
[2] = system: Agrilus planipennis; experiment: Insecticidal activity against Agrilus planipennis infected ash trees assessed as mortality at 25 uCi treated by trunk injection measured after 21 days
[3] = system: Agrilus planipennis; experiment: Insecticidal activity against Agrilus planipennis infected ash trees assessed as mortality at 25 uCi treated by trunk injection measured after 45 days
[4] = system: Agrilus planipennis; experiment: Insecticidal activity against Agrilus planipennis isolated from 45 days after 25 uCi compound treated by trunk injected ash tree leaves assessed as mortality measured after 3 days of feeding
[5] = system: Agrilus planipennis; experiment: Insecticidal activity against Agrilus planipennis isolated from 21 days after 25 uCi compound treated by trunk injected ash tree leaves assessed as mortality at 0.55 to 60 ug/g
[6] = system: Agrilus planipennis; experiment: Insecticidal activity against Agrilus planipennis isolated from 21 days after 25 uCi compound treated by trunk injected ash tree leaves assessed as mortality at 64 ug/g

Q: With `O=[N+]([O-])/N=C1\NCCN1Cc1ccc(Cl)nc1` [IMIDACLOPRID] as the compound, how does the Activity [1] read?
A: 44%

Q: And the Activity [2]?
A: 11%

Q: What about the Activity [3] of the same compound?
A: 17%

Q: What about the Activity [4] of the same compound?
A: 70%

Q: What about the Activity [5] of the same compound?
A: 11%

Q: What about the Activity [6] of the same compound?
A: 70%

From ChEMBL document CHEMBL3044756, “Distribution of trunk-injected ¹⁴C-imidacloprid in ash trees and effects on emerald ash borer (Coleoptera: Buprestidae) adults” (2009)
